From the OligoGym collection
Several values for one entry are separate records, joined by “and”; a condition that tells them apart may be missing. Equal values may be shown once. After the bases stand the sugars from the 5' end (letter, count) and the backbone: PS all phosphorothioate, else s phosphorothioate and o phosphodiester by linkage. Methylation of C is not given here. e = 2'-O-(2-methoxyethyl) (MOE); k = constrained ethyl (cEt); d = 2'-deoxy (DNA); m = 2'-O-methyl

Target: IRF5
Conditions: ASO

| Sequence | target mRNA inhibition (KARPAS-229, 4 µM) | also measured |
| --- | --- | --- |
| TGAGTCATGGGCTGAG (sugars kkdddddddddkdkdk, PS) | 12% | – |
| CTGACACAGGCGGATG (sugars kddddddddddkekek, PS) | 0% | – |
| ATGAGTCATGGGCTGA (sugars kkkddddddddkdkdk, PS) | 0% | – |
| CTAAACCATTCTATGC (sugars k3 d10 k3, PS) | 0% | – |
| TTCTTGGACTCTCAAG (sugars kddddddddddkekek, PS) | 0% | – |
| CTTGGTCTTGACCTCC (sugars kkkdddddddddkeke, PS) | 15% | – |
| TGAGTCATGGGCTGAG (sugars kkkddddddddkdkdk, PS) | 3% | – |
| CACATCTCCACATCAG (sugars kkkddddddddkdkdk, PS) | 39% | – |
| CACATCTCCACATCAG (sugars k3 d10 k3, PS) | 45% | – |
| GCTTGGTCTTGACCTC (sugars k2 d9 e3 k2, PS) | 10% | – |
| ATCACCACTGTGTACC (sugars kkkddddddddkekek, PS) | 0% | – |
| GGTCTGGCCCTTTTGG (sugars kkddddddddkekekk, PS) | 0% | – |
| AGGTTCTTGGACTCTC (sugars k3 d9 k3 e1, PS) | 19% | – |
| ACCATTCTATGCCTTT (sugars kdddddddddkekeke, PS) | 10% | – |
| CCTTCTGCAGGGAGTC (sugars kkdddddddddkekek, PS) | 0% | – |
| ATCACCACTGTGTACC (sugars k3 d10 k3, PS) | 11% | – |
| GTCTTTGAGGTCTGGG (sugars kdddddddddkekeke, PS) | 33% | – |
| GGTCTTTGAGGTCTGG (sugars kkddddddddddkeke, PS) | 67% and 63% | target mRNA inhibition (KARPAS-229, 0.44444 µM): 39%; target mRNA inhibition (KARPAS-229, 1.33333 µM): 43%; target mRNA inhibition (KARPAS-229, 12 µM): 72% |
| GGTGTATTTCCCTGTC (sugars kkkddddddddkdkdk, PS) | 1% | – |
| AGGTTCTTGGACTCTC (sugars kkddddddddkekekk, PS) | 0% | – |
| GGTTCTTGGACTCTCA (sugars kdddddddddkekeke, PS) | 0% | – |
| AATAGGAGTGAGACGA (sugars k3 d10 k3, PS) | 25% | – |
| CCAATTTTGCATTCCA (sugars kkdddddddddkekek, PS) | 11% | – |

| Sequence | target mRNA inhibition (KARPAS-229, 4 µM) | also measured |
| --- | --- | --- |
| CCAATGCAACATCCAT (sugars kkdddddddddkekek, PS) | 0% | – |
| GGTCTTGACCTCCCGC (sugars kkkddddddddkekek, PS) | 29% | – |
| TCATGAGTAATAGGAG (sugars k3 d10 k3, PS) | 11% | – |
| CCACTGTGTACCCCAT (sugars kkdddddddddkdkdk, PS) | 54% | – |
| TACCCAATGCAACATC (sugars k3 d10 k3, PS) | 0% | – |
| CATTCTATGCCTTTTA (sugars kkddddddddkekekk, PS) | 56% | – |
| ATGAGTCATGGGCTGA (sugars kkddddddddkekekk, PS) | 0% | – |
| TGTGACTGTATTACCT (sugars k3 d10 k3, PS) | 81% and 66% | target mRNA inhibition (KARPAS-229, 0.44444 µM): 38%; target mRNA inhibition (KARPAS-229, 1.33333 µM): 44%; target mRNA inhibition (KARPAS-229, 12 µM): 78% |
| TCTGATATGATACCTA (sugars k3 d10 k3, PS) | 63% and 78% | target mRNA inhibition (A-431, 0.00412 µM): 8%; target mRNA inhibition (A-431, 0.01225 µM): 27%; target mRNA inhibition (A-431, 0.03704 µM): 54%; target mRNA inhibition (A-431, 0.11111 µM): 78%; target mRNA inhibition (A-431, 0.33333 µM): 89%; target mRNA inhibition (A-431, 1 µM): 92%; target mRNA inhibition (KARPAS-229, 0.44444 µM): 59%; target mRNA inhibition (KARPAS-229, 1.33333 µM): 68%; target mRNA inhibition (KARPAS-229, 12 µM): 83% |
| CCCAATGCAACATCCA (sugars kdddddddddkekeke, PS) | 0% | – |
| GATGGTGTTATCTCCG (sugars kkdddddddddkdkdk, PS) | 0% | – |
| CAACATCCATCAATGA (sugars k3 d10 k3, PS) | 0% | – |
| GCTGTCACATCTCCAC (sugars kkddddddddkekekk, PS) | 29% | – |
| AGCTTGGTCTTGACCT (sugars kkkddddddddkekek, PS) | 3% | – |
| GGTCTTGACCTCCCGC (sugars kkkddddddddkdkdk, PS) | 4% | – |
| TGAGTCTCAAACCAGG (sugars kkddddddddddkeke, PS) | 7% | – |
| GTTATCTCCGTCCTGG (sugars k3 d10 k3, PS) | 31% | – |
| TTCTTGGACTCTCAAG (sugars kdddddddddkekeke, PS) | 0% | – |
| TTCCAATTTTGCATTC (sugars k3 d10 k3, PS) | 39% | – |
| GGAAGTGAGTCTCAAA (sugars kkddddddddkekekk, PS) | 36% | – |
| GGAGTGAGACGAGCAA (sugars kkddddddddddkeke, PS) | 33% | – |
| TATTTCTGCTCCAGGT (sugars kkdddddddddkdkdk, PS) | 27% | – |
| GTCTGGCCCTTTTGGA (sugars k3 d9 k3 e1, PS) | 0% | – |

| Sequence | target mRNA inhibition (KARPAS-229, 4 µM) | also measured |
| --- | --- | --- |
| GGAAGTGAGTCTCAAA (sugars k2 d9 e3 k2, PS) | 32% | – |
| TGCTCTAAACCATTCT (sugars k3 d10 k3, PS) | 0% | – |
| GGTCTGGCCCTTTTGG (sugars kekdddddddddeekk, PS) | 13% | – |
| TTGTCTAGTGTCATGG (sugars k3 d9 k3 e1, PS) | 20% | – |
| AGGAGTGAGACGAGCA (sugars k3 d9 k3 e1, PS) | 37% | – |
| GATGGTGTTATCTCCG (sugars kkdddddddddkekek, PS) | 0% | – |
| AAGGGCACAGCGCAGG (sugars kkkddddddddkekek, PS) | 0% | – |
| TGTCTAGTGTCATGGA (sugars kkddddddddkekekk, PS) | 10% | – |
| GGAAGTGAGTCTCAAA (sugars k3 d9 k3 e1, PS) | 49% and 71% | target mRNA inhibition (KARPAS-229, 0.44444 µM): 21%; target mRNA inhibition (KARPAS-229, 1.33333 µM): 13%; target mRNA inhibition (KARPAS-229, 12 µM): 76% |
| CCTTCTGCAGGGAGTC (sugars kkkddddddddkdkdk, PS) | 0% | – |
| GGTCTTTGAGGTCTGG (sugars k2 d9 e3 k2, PS) | 74% and 69% | target mRNA inhibition (KARPAS-229, 0.44444 µM): 22%; target mRNA inhibition (KARPAS-229, 1.33333 µM): 58%; target mRNA inhibition (KARPAS-229, 12 µM): 79% |
| CAATGCAACATCCATC (sugars k3 d10 k3, PS) | 0% | – |
| GATGGTGTTATCTCCG (sugars k2 d8 e4 k2, PS) | 0% | – |
| TTATCTCCGTCCTGGC (sugars kkddddddddkekekk, PS) | 0% | – |
| GGAGTGAGACGAGCAA (sugars k3 d9 k3 e1, PS) | 33% | – |
| CTTCTGCAGGGAGTCA (sugars k3 d10 k3, PS) | 0% | – |
| TCTGAUATGATACCTA (sugars k3 d2 m1 d7 k3, PS) | – | target mRNA inhibition (A-431, 0.00412 µM): 0%; target mRNA inhibition (A-431, 0.01225 µM): 12%; target mRNA inhibition (A-431, 0.03704 µM): 35%; target mRNA inhibition (A-431, 0.11111 µM): 58%; target mRNA inhibition (A-431, 0.33333 µM): 79%; target mRNA inhibition (A-431, 1 µM): 83% |
| CATCTCCACATCAGTC (sugars kddddddddddkekek, PS) | 25% | – |
| ACCACTGTGTACCCCA (sugars kkkddddddddkdkdk, PS) | 40% | – |
| CCTCATGAGTAATAGG (sugars k3 d10 k3, PS) | 0% | – |
| CATTCCATATACACAC (sugars kkkddddddddkekek, PS) | 32% | – |
| GGTCTGGCCCTTTTGG (sugars kkdddddddddkekek, PS) | 3% | – |
| AGCTTGGTCTTGACCT (sugars kdddddddddkekeke, PS) | 14% | – |

| Sequence | target mRNA inhibition (KARPAS-229, 4 µM) | also measured |
| --- | --- | --- |
| TTATTTCTGCTCCAGG (sugars kkkdddddddddkeke, PS) | 43% | – |
| CACTGACACAGGCGGA (sugars kkkddddddddkdkdk, PS) | 0% | – |
| CCCAATGCAACATCCA (sugars kkdddddddddkekek, PS) | 0% | – |
| CACATCTCCACATCAG (sugars kekdddddddddeekk, PS) | 26% | – |
| ATGAGTCATGGGCTGA (sugars kkkdddddddddkeke, PS) | 9% | – |
| TTATCTCCGTCCTGGC (sugars kkddddddddddkeke, PS) | 0% | – |
| CAGGTTCTTGGACTCT (sugars kkkddddddddkdkdk, PS) | 0% | – |
| GGTTCTTGGACTCTCA (sugars kddddddddddkekek, PS) | 9% | – |
| GGGCACAGCGCAGGTT (sugars kkddddddddkekekk, PS) | 61% and 66% | target mRNA inhibition (KARPAS-229, 0.44444 µM): 15%; target mRNA inhibition (KARPAS-229, 1.33333 µM): 32%; target mRNA inhibition (KARPAS-229, 12 µM): 76% |
| GCACTGACACAGGCGG (sugars kkddddddddkekekk, PS) | 0% | – |
| CTGTCACATCTCCACA (sugars k2 d9 e3 k2, PS) | 10% | – |
| TGAGTCATGGGCTGAG (sugars k3 d9 k3 e1, PS) | 11% | – |
| TGTCTAGTGTCATGGA (sugars kkddddddddddkeke, PS) | 44% | – |
| AGATGGTGTTATCTCC (sugars k3 d9 k3 e1, PS) | 0% | – |
| GAAGTGAGTCTCAAAC (sugars kddddddddddkekek, PS) | 44% | – |
| TGTCTAGTGTCATGGA (sugars kkddkddddddeeekk, PS) | – | target mRNA inhibition (A-431, 0.00412 µM): 0%; target mRNA inhibition (A-431, 0.01225 µM): 0%; target mRNA inhibition (A-431, 0.03704 µM): 9%; target mRNA inhibition (A-431, 0.11111 µM): 17%; target mRNA inhibition (A-431, 0.33333 µM): 13%; target mRNA inhibition (A-431, 1 µM): 29% |
| GGGCACAGCGCCAGGTT (sugars kddddddddddkekekd, PS) | 37% and 62% | target mRNA inhibition (KARPAS-229, 0.44444 µM): 23%; target mRNA inhibition (KARPAS-229, 1.33333 µM): 40%; target mRNA inhibition (KARPAS-229, 12 µM): 87% |
| ATCACCACTGTGTACC (sugars kdddddddddkekeke, PS) | 0% | – |
| GTTCTTGGACTCTCAA (sugars k2 d9 e3 k2, PS) | 22% | – |
| GGAGTGAGACGAGCAA (sugars kkddddddddkekekk, PS) | 38% | – |
| GTCTGGCCCTTTTGGA (sugars k2 d9 e3 k2, PS) | 0% | – |
